Measurements as given in US11136583B2, “Methods and materials for treating cancer” (Mayo Foundation for Medical Education and Research, priority 2017, dated 2021).

Tests used:
UFL1 = experiment: Ufmylation level in U2OS cells by western blot with UFM1 antibody; assay type: cell-based
Experimental: FIG. 10. U2OS cells were treated with AZD6244 or GDC0623. 48 hours later, cell were harvested, lysed, and analyzed by western blot with the indicated antibodies.
(§1) U2OS cells were plated in 6 well plates, and MEK1 inhibitors (AZD6244 or GDC0623) were added to wells with 10 μM final concentration and incubated for 48 hours. AZD6244 was purchased from Selleckchem. In some cases, cells were also irradiated with IR (10 Gy IR for 30 minutes).
(§2) Cells were washed once with PBS and lysed with SDS lysis buffer. The samples were separated by SDS-PAGE following three washes with NETN buffer. Western blots were carried out following standard procedures.
To identify an inhibitor of UFL1 activity that induced a significant decrease of ufmylation, cells were treated with inhibitors and were analyzed by western blot using UFM1 antibody to detect the ufmylation level in the cells.

[1] = system: Protein kinase ataxia-telangiectasia mutated (ATM) signaling; experiment: ATM signaling in irradiated U2OS cells by western blot; assay type: cell-based; settings: U2OS cells pretreated 6 hours, then 10 Gy IR, harvested 30 minutes after IR (FIG. 11)
Experimental: FIG. 11. U2OS cells were pretreated with AZD6244. 6 hours later, cells were treated with 10 Gy IR. 30 minutes after ionizing radiation, cells were harvested, lysed, and analyzed by western blot with the indicated antibodies.
as §1, §2

For `Cn1cnc2c(F)c(Nc3ccc(Br)cc3Cl)c(C(=O)NOCCO)cc21` [AZD6244, selumetinib], the “UFL1 inhibition (conclusion from ufmylation and ATM signaling western blots)” value (UFL1) was “inhibits UFL1”, the “ufmylation level in the cells” value (UFL1; 10 μM, 48 hours, western blot with UFM1 antibody (FIG. 10)) was “greatly suppressed” and the ATM signaling [1] was “greatly suppressed”.
